Data from ChEMBL document CHEMBL1124302, “Nucleoside conjugates. 10. Synthesis and antitumor activity of 1-beta-D-arabinofuranosylcytosine 5'-diphosphate-1,2-dipalmitins” (J Med Chem, 1988).

Columns and labels:
Assay type in all cases: organism-based
Mus musculus [1] = experiment: Toxicity in mice after 9-11 days at a dose of 200 mg/kg/day; 10/9.5; settings: in vivo
Mus musculus [2] = experiment: Toxicity in mice after 7-14 days at a dose of 100 mg/kg/day; 11/9.5; settings: in vivo
Mus musculus [3] = experiment: Toxicity in mice after 17-35 days at a dose of 400 mg/kg/day; 19/9; settings: in vivo
Mus musculus [4] = experiment: Toxicity in mice after 17-29 days at a dose of 80 mg/kg/day; 21/9.5; settings: in vivo
Mus musculus [5] = experiment: Toxicity in mice after 8->45 days at a dose of 300 mg/kg/day; 45/9; settings: in vivo, 1080 h
Mus musculus [6] = experiment: Toxicity in mice after 29->45 days at a dose of 60 mg/kg/day; 45/9; settings: in vivo, 1080 h
Mus musculus [7] = experiment: Toxicity in mice after 35->45 days at a dose of 133 mg/kg/day; 45/9.5; settings: in vivo, 1080 h
Mus musculus [8] = experiment: Toxicity in mice after 32->45 days at a dose of 400 mg/kg/day; 45/9; settings: in vivo, 1080 h
Mus musculus [9] = experiment: Toxicity in mice after 15-45 days at a dose of 60 mg/kg/day; 30/9; settings: in vivo
Mus musculus [10] = experiment: Toxicity in mice after 14-45 days at a dose of 100 mg/kg/day; 37.5/9; settings: in vivo
Mus musculus [11] = experiment: Toxicity in mice after 12-13 days at a dose of 100 mg/kg/day; 12/8; settings: in vivo
Mus musculus [12] = experiment: Toxicity in mice after 15-18 days at a dose of 60 mg/kg/day; 15.5/8.5; settings: in vivo
Mus musculus [13] = experiment: Toxicity in mice after 7-8 days at a dose of 100 mg/kg/day; 7/9; settings: in vivo
Mus musculus [14] = experiment: Toxicity in mice after 17-21 days at a dose of 60 mg/kg/day; 21/8.5; settings: in vivo
Mus musculus [15] = experiment: Toxicity in mice after 13-15 days at a dose of 60 mg/kg/day; 14/8.5; settings: in vivo
Mus musculus [16] = experiment: Toxicity in mice after 7 days at a dose of 200 mg/kg/day; 7/9; settings: in vivo, 168 h
Mus musculus [17] = experiment: Toxicity in mice after 9-12 days at a dose of 200 mg/kg/day; 10.5/9.5; settings: in vivo
Mus musculus [18] = experiment: Toxicity in mice after 7-8 days at a dose of 200 mg/kg/day; 8/9; settings: in vivo
Mus musculus [19] = experiment: Toxicity in mice after 10 days at a dose of 95 and 190 mg/kg/day; 10/9.5; settings: in vivo, 240 h
Mus musculus [20] = experiment: Toxicity in mice after 11-12 days at a dose of 19 and 38 mg/kg/day; 11/9.5; settings: in vivo

SMILES: CCCCCCCCCCCCCCCC(=O)OC[C@H](COP(=O)(O)O)OC(=O)CCCCCCCCCCCCCCC.Nc1ccn([C@@H]2O[C@H](COP(=O)(O)O)[C@@H](O)[C@@H]2O)c(=O)n1
- median survival time (Mus musculus [1]): 10 days
- median survival time (Mus musculus [2]): 11 days

SMILES: CCCCCCCCCCCCCCCC(=O)OC[C@@H](COP(=O)(O)OP(=O)(O)OC[C@H]1O[C@@H](n2ccc(N)nc2=O)[C@@H](O)[C@@H]1O)OC(=O)CCCCCCCCCCCCCCC
- median survival time (Mus musculus [3]): 19 days
- median survival time (Mus musculus [4]): 21 days

SMILES: CCCCCCCCCCCCCCCC(=O)OC[C@H](COP(=O)(O)OP(=O)(O)OC[C@H]1O[C@@H](n2ccc(N)nc2=O)[C@@H](O)[C@@H]1O)OC(=O)CCCCCCCCCCCCCCC
- median survival time (Mus musculus [5]): > 45 days
- median survival time (Mus musculus [6]): > 45 days
- median survival time (Mus musculus [7]): > 45 days

SMILES: CCCCCCCCCCCCCCCC(=O)OCC(COP(=O)(O)OP(=O)(O)OC[C@H]1O[C@@H](n2ccc(N)nc2=O)[C@@H](O)[C@@H]1O)OC(=O)CCCCCCCCCCCCCCC (mixture of isomers)
- median survival time (Mus musculus [8]): > 45 days
- median survival time (Mus musculus [9]): 30 days
- median survival time (Mus musculus [10]): 37.5 days

SMILES: Nc1ccn([C@@H]2O[C@H](CO)[C@@H](O)[C@@H]2O)c(=O)n1 [CYTARABINE]
- median survival time (Mus musculus [11]): 12 days
- median survival time (Mus musculus [12]): 15.5 days
- median survival time (Mus musculus [13]): 7 days
- median survival time (Mus musculus [14]): 21 days
- median survival time (Mus musculus [15]): 14 days
- median survival time (Mus musculus [16]): 7 days
- median survival time (Mus musculus [17]): 10.5 days
- median survival time (Mus musculus [18]): 8 days

SMILES: CCCCCCCCCCCCCCCC(=O)OC[C@@H](COP(=O)(O)O)OC(=O)CCCCCCCCCCCCCCC.Nc1ccn([C@@H]2O[C@H](COP(=O)(O)O)[C@@H](O)[C@@H]2O)c(=O)n1
- median survival time (Mus musculus [19]): 10 days
- median survival time (Mus musculus [20]): 11 days
